Experimental data taken from patent publication US20240009143A1, “EXTRACTION OF SHIKONIN FROM ARNEBIA DECUMBENS ROOTS AND USE OF SHIKONIN DERIVATIVES FOR TREATING ULCERS” (KUWAIT UNIVERSITY, priority 2022, published 2024).

System: Heliobacter pylori
Experiment: In vitro testing on H. pylori
Type: cell-based
Conditions: dose of 0.06 mg
Protocol: The biological activity of the 4 shikonin derivatives were tested against 2 microorganisms Heliobacter pylori (H. pylori or HP) and Candida albicans (C. albicans).

Row | Compound | inhibition associated with H. pylori
1 | CC(C)=CC[C@@H](O)C1=CC(=O)c2c(O)ccc(O)c2C1=O [compound E, shikonin] | 41.6%
2 | CC(=O)O[C@H](CC=C(C)C)C1=CC(=O)c2c(O)ccc(O)c2C1=O [compound D, acetylshikonin] | 41.6%
